Here are results for 8 molecules from patent US7432291B2, “Ether derivatives” (Hoffman-La Roche Inc., priority 2004, dated 2008).

T1 sequence (P04626 23-1255): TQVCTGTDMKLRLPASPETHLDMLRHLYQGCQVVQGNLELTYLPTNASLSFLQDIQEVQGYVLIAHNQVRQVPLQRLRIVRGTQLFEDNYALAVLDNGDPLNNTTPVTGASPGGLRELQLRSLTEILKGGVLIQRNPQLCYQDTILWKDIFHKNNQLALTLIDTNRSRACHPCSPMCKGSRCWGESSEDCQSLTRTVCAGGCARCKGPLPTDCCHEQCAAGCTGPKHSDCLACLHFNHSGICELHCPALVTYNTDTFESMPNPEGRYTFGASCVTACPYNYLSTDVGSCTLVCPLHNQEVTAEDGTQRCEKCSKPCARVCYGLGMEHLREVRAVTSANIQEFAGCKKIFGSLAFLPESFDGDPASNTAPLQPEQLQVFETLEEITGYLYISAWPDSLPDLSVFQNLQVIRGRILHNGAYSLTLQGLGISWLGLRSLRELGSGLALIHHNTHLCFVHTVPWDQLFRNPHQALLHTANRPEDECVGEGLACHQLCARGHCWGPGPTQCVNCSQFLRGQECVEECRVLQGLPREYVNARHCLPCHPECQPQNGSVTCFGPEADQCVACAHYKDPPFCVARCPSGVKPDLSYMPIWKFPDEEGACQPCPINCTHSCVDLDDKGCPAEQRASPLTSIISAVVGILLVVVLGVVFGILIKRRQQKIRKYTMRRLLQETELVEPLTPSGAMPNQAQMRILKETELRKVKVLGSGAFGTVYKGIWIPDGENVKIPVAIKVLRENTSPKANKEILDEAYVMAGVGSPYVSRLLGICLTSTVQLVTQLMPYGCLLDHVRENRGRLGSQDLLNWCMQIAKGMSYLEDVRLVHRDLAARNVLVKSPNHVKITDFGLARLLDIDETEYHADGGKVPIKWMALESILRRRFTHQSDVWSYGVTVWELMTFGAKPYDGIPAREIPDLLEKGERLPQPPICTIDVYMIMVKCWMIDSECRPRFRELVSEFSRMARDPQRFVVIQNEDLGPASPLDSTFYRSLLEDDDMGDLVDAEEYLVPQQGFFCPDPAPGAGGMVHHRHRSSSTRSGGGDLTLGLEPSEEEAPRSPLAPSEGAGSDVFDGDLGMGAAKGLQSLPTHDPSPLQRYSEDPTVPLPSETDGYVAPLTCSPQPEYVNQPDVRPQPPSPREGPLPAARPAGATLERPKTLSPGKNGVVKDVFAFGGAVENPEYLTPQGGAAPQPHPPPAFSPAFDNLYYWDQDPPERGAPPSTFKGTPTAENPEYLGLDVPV

One data set concerns the target T1, HER2 (pY 1248) in Calu3 cells (Homo sapiens, UniProt P04626).
T1 construct: endogenous in cells; host or cells: Calu-3 (HTB-55)
Briefly: Inhibition of HER2 phosphorylation in Calu3 tumor cell line. Type of data set: cell-based. Particulars: Calu-3, compound concentration 1 μM, 16 h incubation, percentage of the DMSO treated control, read-out: Percent inhibition of HER2-phosphorylation. The protocol: Inhibition of HER2 Phosphorylation in Calu3 Tumor Cell Line
2×10^5 Calu3 cells [Calu-3 (HTB-55) cells available from ATTC] per well were plated 12-well plate. After 4 days cells were starved for 16 h in DMEM/0.5% FCS/1% Glutamine. During this time cells were incubated with 1 μM of the compound. Afterwards cells were lysed in lyses buffer containing 1% Triton, 10% Glycerol, 1 mM EGTA, 1.5 mM MgCl2, 150 mM NaCl, 50 mM Hepes pH 7.5, 1 mM PMSF, 10 μg/mL Aprotinin and […] Orthovanadate. Cell lysates were analyzed on a SDS PAGE and after transfer to a nitrocellulose membrane detected with an antibody specifically recognizing the pY 1248 in HER2. Inhibition of HER2 phosphorylation is calculated as percentage of the DMSO treated control. This percentage was calculated according to the following formula: Inhibition in %=100−(Phosphorylated-HER2-Signal of Test Sample*100/Phosphorylated-HER2-Signal DMSO-control).
For the molecule `FC(F)(F)Oc1ccc(/C=C/c2nc(COc3ccc(COCCn4ccnn4)cc3)co2)cc1` [example 4, 1-[2-(4-{2-[2-(E)-(4-Trifluoromethoxy-phenyl)-vinyl]-oxazol-4-ylmethoxy}-benzyloxy)-ethyl]-1H-[1,2,3]triazole], the inhibition at 1 µM turned out to be 78.6%.

As to `FC1(F)Oc2ccc(/C=C/c3nc(COc4ccc(COCCn5ccnn5)cc4)co3)cc2O1` [example 2, 1-[2-(4-{2-[2-(E)-(2,2-Difluoro-benzo[1,3]dioxol-5-yl)-vinyl]-oxazol-4-ylmethoxy}-benzyloxy)-ethyl]-1H-[1,2,3]triazole], the inhibition at 1 µM was 85.8%.

Turning to `FC(F)(F)c1ccc(/C=C/c2nc(COc3ccc(COCCn4ccnn4)cc3)co2)cc1` [reference compound 2, 1-[2-(4-{2-[(E)-2-(4-Trifluoromethyl-phenyl)-vinyl]-oxazol-4-ylmethoxy}-benzyloxy)-ethyl]-1H-[1,2,3]triazole, reference compound], the inhibition at 1 µM came to 54%.

For the molecule `FC(F)Oc1ccc(/C=C/c2nc(COc3ccc(COCCn4ccnn4)cc3)co2)cc1` [example 1, 1-[2-(4-{2-[2-(E)-(4-Difluoromethoxy-phenyl)-vinyl]-oxazol-4-ylmethoxy}-benzyloxy)-ethyl]-1H-[1,2,3]triazole], the inhibition at 1 µM stood at 69.6%.

In the case of `FC(F)(F)Sc1ccc(/C=C/c2nc(COc3ccc(COCCn4ccnn4)cc3)co2)cc1` [example 3, 1-[2-(4-{2-[2-(E)-(4-Trifluoromethylsulfanyl-phenyl)-vinyl]-oxazol-4-ylmethoxy}-benzyloxy)-ethyl]-1H-[1,2,3]triazole], the inhibition at 1 µM worked out at 73.4%.

Tested on in another data set: not given
Test: not given
Conditions: not given
`Cc1cc(OCc2coc(C=Cc3ccc(OC(F)(F)F)cc3)n2)ccc1COCCn1ccnn1` [Example 9, 1-[2-(2-Methyl-4-{2-[2-(4-trifluoromethoxy-phenyl)-vinyl]-oxazol-4-ylmethoxy}-benzyloxy)-ethyl]-1H-[1,2,3]triazole] returned a melting point of 84 to 85 °C.

With `Cc1cc(OCc2coc(C=Cc3ccc(SC(F)(F)F)cc3)n2)ccc1COCCn1ccnn1` [Example 8, 1-[2-(2-Methyl-4-{2-[2-(4-trifluoromethylsulfanyl-phenyl)-vinyl]-oxazol-4-ylmethoxy}-benzyloxy)-ethyl]-1H-[1,2,3]triazole], the melting point is 102 °C.

With `Cc1cc(OCc2coc(C=Cc3ccc(OC(F)F)cc3)n2)ccc1COCCn1ccnn1` [Example 7, 1-[2-(4-{2-[2-(4-Difluoromethoxy-phenyl)-vinyl]-oxazol-4-ylmethoxy}-2-methyl-benzyloxy)-ethyl]-1H-[1,2,3]triazole], the melting point lay within 119 to 120 °C.
